Measurements: US6770303B1, “Use of antifungal and/or antibacterial and/or antiviral compounds” (priority 1998, dated 2004)
Entries after “also recorded” stand apart in the source; their conditions may differ. Read-outs that look alike come from different tables or passages of the source.

Tests used:
[1] = test system: phenylalanine ammonia lyase (PAL); assay: PAL activity in tobacco cell cultures after potentiator pretreatment and elicitation; assay type: cell-based, Nicotiana tabacum
Procedure: Measurement of the activity of PAL (phenylalanine ammonia lyase): key enzyme in the phenylpropanoid pathway and more particularly in the lignification involved in defense reactions in plants (most particularly in monocotyledon plants).
(§1) The cell suspensions used are suspensions of Nicotiana tabacum BY (bright yellow) obtained from Washington State University (Pullman, USA). They are cultured in the dark, at 24° C. with agitation (120 rpm) and subcultured every 7 days by transferring 10 ml of culture into 70 ml of fresh medium.
(§2) The cells are pretreated 5 days after subculturing (end of the exponential growth phase) and elicited on the 6th day. Two hours before pretreatment, 10 ml of cells are transferred into 25 ml conical flasks. For the phenylalanine ammonia lyase (PAL) and lipoxygenase (LOX) activity analyses and the determination of the salicylic acid (SA), the cells are harvested at the desired time by filtration on Whatman 3 M paper, frozen in liquid nitrogen and stored at −80° C. until the analysis.
The cells (0.5 g) are ground in 0.1 M pH 8.8 borate buffer in the presence of active charcoal and quartz. The grinding ratio is 1/5 (w/v). After centrifugation, 100 μl of cell extract are incubated for 1 h at 37° C. in the presence of 200 μl of 0.1 M pH 8.8 borate buffer and 100 μl of a mixture of 0.1 M pH 8.8 borate buffer and 300 μM L-phenylalanine (labelled and cold mixture); the final solution has a specific activity of 810,000 cpm/ml.
The reaction is quenched by adding a few drops of 9 N H2SO4. 2 ml of H2O are added. The reaction products are extracted by adding 2 ml of an ether/cyclohexane mixture (1/1, v/v). Since the phenylalanine is insoluble in this mixture, the reaction is counted on 1 ml in the presence of “multi-purpose” scintillation liquid.
(§3) In all cases, the pretreatment with the potentiator is carried out 18 hours before the elicitor treatment.
The samples for analysing the physiological effects are taken 4 hours, 12 hours or 24 hours after elicitation. The controls corresponding to a potentiation alone or an elicitation alone are systematically present for each sample taken.

lipoxygenase (LOX) = assay: LOX activity in tobacco cell cultures after potentiator pretreatment and elicitation; assay type: cell-based, Nicotiana tabacum; settings: for Effect on LOX activity, potentiator in itself / LOX activity, potentiator applied alone: no elicitor; for Effect on LOX activity, potentiator in itself: conclusion of Example 1; for LOX activity relative to the corresponding control: 18 h pretreatment
Procedure: Measurement of the activity of LOX (lipoxygenase) which is a key enzyme in the synthesis of jasmonic acid, another signal molecule.
as §1, §2
The cells (250 mg) are ground in 0.5 ml of extraction buffer in the presence of quartz.
The ground mixture is centrifuged for 15 min at 4° C. and 13,000 rpm. 2.87 ml of 0.1 M pH 6.8 Tris buffer are added to the cell extract, followed by 30 μl of 10 mM linolenic acid. After stirring, the change in the OD is monitored at 234 nm.
as §3
[…] The controls corresponding to a potentiation alone or an elicitation alone are systematically present for each sample taken.

salicylic acid (SA) = assay: Salicylic acid (SA) accumulation in tobacco cell cultures; assay type: cell-based, Nicotiana tabacum
Procedure: The samples (0.5 g) of tobacco cells or leaves are ground in liquid nitrogen and grinding is then continued in the presence of 0.8 ml of 90% methanol. A known amount of ^14C-labelled SA (1 nCi, 54 mCi/mol, Sigma) is then added in order to estimate the yield for the recovery of the endogenous SA. The amount of labelled SA added is less than the detection threshold for the analysis. […]
The samples are brought to pH 2 by addition of 2 M HCl and are then heated at 80° C. for one hour. […] 20 ml of this mixture, to which are added 3 ml of scintillation liquid (Ready Gel, Beckmann), are taken for counting of the residual radioactivity, which allows calculation of the SA recovery yield. The contents of total SA determined correspond to the sum of the SA contents in free form and of the SA contents in conjugated form, the SA being released during the hydrolysis.
The elution is programmed on a Waters HPLC system in an isocratic system for 10 min. […] The SA is quantified by fluorometry (λ excitation=315 nm, λ emission=405 nm). […] The amounts of SA injected are calculated by means of comparing the area of the peaks corresponding to SA with that of the standard molecule injected. The SA contents in the samples are then calculated, taking the recovery yield into account. […]

Erysiphe cichoracerum = assay: Open-field trial on powdery mildew of melon by foliar treatment; assay type: in vivo; settings: Agrimer 540 1 l/ha
Procedure: Open-field Trial on Powdery Mildew (Erysiphe cichoracerum) of Melon (Cucumis melo, Rochet Variety) by Foliar Treatment.
(§4) The fungicide used is fosetyl-Al (WG applied at 1.25 kg/ha, i.e. 1000 g/ha of active material) and the algal extract (solution LC, 1 l/ha) is Agrimer 540 from the company Agrimer.
All of these products are used at a dose of 1000 g/ha and the percentage of plants attacked by the disease is determined 15 days after two treatments T1 and T2 (carried out with an interval of 7 days).

Erysiphe graminis = assay: Open-field test on powdery mildew of wheat by foliar treatment; assay type: in vivo; settings: winter wheat, fosetyl-Al 1000 g/ha a.m., Agrimer 540 1 l/ha
Procedure: Open-field Test on Powdery Mildew (Erysiphe graminis) of Wheat (Triticum aestivum, Winter Variety) by Foliar Treatment.
as §4
All these products are used at a rate of 1000 g/ha and the percentage of plants attacked (% of leaves destroyed) by the disease is determined, on the one hand on a foliar stage treated semi-curatively (reading taken 22 days after the treatment T), and on the other hand on a foliar stage treated curatively (reading taken 27 days after the treatment T).

tobacco cell cultures = assay type: cell-based, Nicotiana tabacum
From the text: Fosetyl-Al and phosphorous acid have mainly been selected as potentiators in the biological experimentation, but, for reasons of toxicity of fosetyl-Al on tobacco cell cultures, we replaced it with fosetyl sodium in the cell tests.

[2] = cells potentiated and elicited with a pectin oligomer, compared with the other conditions

SMILES: CCO[PH](=O)O [fosetyl-Na]
- PAL activity of pretreated cells versus unconditioned cells ([1]; 5 mM conditioning 18 h, then 2 nM β-megaspermine (FIG. 9)): always greater than that observed in the unconditioned cells
- Effect of conditioning on PAL activity after elicitation ([1]; 5 mM conditioning 18 h, then 20 μg/ml pectin oligomers): maintains the PAL activity at a high level 11 h after the elicitation
- PAL activity of potentiated and elicited cells (FIG. 21) [1, 2]: much higher
- Induction of PAL activity, potentiator applied alone ([1]; no elicitor): No significant effect; also recorded: do not in themselves have any effect
- Effect on LOX activity, potentiator in itself (lipoxygenase (LOX)): do not in themselves have any effect
- Effect on synthesis of SA, potentiator in itself (salicylic acid (SA); no elicitor, conclusion of Example 1): do not in themselves have any effect

SMILES: OP(O)O [H3PO3, phosphorous acid]
- Effect of conditioning on PAL activity after elicitation [1]: strong stimulation of the PAL activity; also recorded: greater than that observed in the unconditioned cells
- Effect of pretreatment on induction of PAL activity by the elicitor [1]: markedly amplifies the response to the elicitor
- Induction of PAL activity, potentiator applied alone [1]: No significant inductive effect; also recorded: do not in themselves have any effect
- PAL activity of potentiated and elicited cells (FIG. 21) [1]: much higher
- PAL activity of pretreated cells versus unconditioned cells [1]: always greater than that observed in the unconditioned cells
- PAL activity relative to the level of the unconditioned cells [1]: 4 times
- LOX activity relative to the corresponding control (lipoxygenase (LOX); measured 12 h after elicitation with 2 nM β-megaspermine): about 28 times
- LOX activity relative to the corresponding control (lipoxygenase (LOX); measured 21 h after elicitation with 10 μg/ml oligosaccharide elicitor of β-glucan type): about 4 times
- LOX activity, potentiator applied alone (lipoxygenase (LOX); 30 h (18 h of pretreatment+12 h) after application): No inductive effect
- LOX activity, potentiator applied alone (lipoxygenase (LOX); 39 h (18 h of pretreatment+21 h) after application): mild inductive effect
- Effect on LOX activity, potentiator in itself (lipoxygenase (LOX)): do not in themselves have any effect
- Effect on synthesis of SA, potentiator in itself (salicylic acid (SA)): do not in themselves have any effect
- Rate of synthesis of SA relative to unconditioned cells (salicylic acid (SA)): large increase

SMILES: CCO[PH](=O)O [Fosetyl-Al, fosetyl-Al]
- percentage of plants attacked by the disease, % at T2 + 15 days (Erysiphe cichoracerum; T2 7 days after T1, fosetyl-Al 1000 g/ha a.m., untreated control 95.0): 80.0%
- percentage of plants attacked by the disease, % at T1 + 15 days (Erysiphe cichoracerum; fosetyl-Al 1000 g/ha a.m., untreated control 91.7): 80.0%
- % of leaves destroyed at T + 22, semi-curative (Erysiphe graminis; untreated control 91.1): 77.8%
- % of leaves destroyed at T + 27, curative (Erysiphe graminis; untreated control 100): 100%
- Toxicity on tobacco cell cultures (tobacco cell cultures): toxicity

SMILES: CSC(=O)c1cccc2nnsc12 [BTH, reference compound]
- PAL activity of potentiated and elicited cells (FIG. 21) [1, 2]: much higher
